Measured values from US8183262B2, “Pyridine derivatives as mGluR2 antagonists” (Hoffmann-La Roche Inc., priority 2007, dated 2012).

Columns and labels:
rat mGlu2 receptor = target: T1, rat mGlu2 receptor (Rattus norvegicus, UniProt P31421); experiment: [3H]-LY354740 binding on mGlu2 transfected CHO cell membranes; settings: inhibition of 10 nM [3H]-LY354740 binding, membranes of CHO cells transfected with rat mGlu2, room temperature, 1 hour
T1 construct: expressed in transfected cells; membranes prepared
Text: [^3H]-LY354740 Binding on mGlu2 Transfected CHO Cell Membranes. Transfection and Cell Culture
cDNA encoding the rat mGlu2 receptor protein in pBluescript II was subcloned into the eukaryotic expression vector pcDNA I-amp from Invitrogen Ltd (Paisley, UK). This vector construct (pcD1mGR2) was co-transfected with a psvNeo plasmid encoding the gene for neomycin resistance, into CHO cells by a modified calcium phosphate method described by Chen & Okayama (1988). The cells were maintained in Dulbecco's Modified Eagle medium with reduced L-glutamine (1 mM final concentration), 36 mg/L L-Proline and 10% dialysed foetal calf serum from Gibco-Invitrogen; the medium was supplemented with 500 microM α-methyl-4-carboxyphenylglycine (MCPG). Selection was made in the presence of G-418 (300 ug/ml final concentration). Clones were identified by reverse transcription of 5 μg total RNA, followed by PCR using mGlu2 receptor specific primers 5′-[…]-3′ and 5′-[…]-3′ in 60 mM Tris HCl (pH 10), 15 mM (NH4)2SO4, 2 mM MgCl2, 25 units/ml Taq Polymerase with 30 cycles annealing at 60° C. for 1 min., extention at 72° C. for 30 s, and 1 min. 95° C. denaturation.
Cells, cultured as above, were harvested and washed three times with cold PBS and frozen at −80° C. The pellet was resuspended in cold 20 mM HEPES-NaOH buffer containing 10 mM EDTA (pH 7.4), and homogenised with a polytron (Kinematica, A G, Littau, Switzerland) for 10 s at 10 000 rpm. After centrifugation for 30 min. at 4° C., the pellet was washed once with cold 20 mM HEPES-NaOH buffer containing 0.1 mM EDTA, (pH 7.4). After a second centrifugation for 30 min. at 4° C. the pellet was resuspended in cold 20 mM HEPES-NaOH buffer containing 0.1 mM EDTA, (pH 7.4). Protein content was measured using the Micro BCA method from Pierce-Perbio (Rockford, Ill., USA) using bovine serum albumin as standard.
After thawing, the membranes were resuspended in cold 50 mM Tris-HCl buffer containing 2 mM MgCl2 (pH 7.4) (binding buffer). The final concentration of the membranes in the assays was 25 μg protein/ml. Inhibition experiments were performed with membranes incubated with 10 nM [^3H]-LY354740 at room temperature, for 1 hour, in presence of various concentrations of the compound to be tested. Following the incubations, membranes were filtered onto Whatmann GF/B glass fiber filters or onto GF/B Unifilter plates and washed 5 times with cold binding buffer. Non specific binding was measured in the presence of 10 μM (2S,2′R,3′R)-2-(2′3′-Dicarboxycyclopropyl)glycine (DCG IV from Tocris, Ellisville, Mo. USA). After transfer of the filters into plastic vials containing 10 ml of Ultima-gold scintillation fluid from Perkin-Elmer (Boston, Mass., USA), the radioactivity was measured by liquid scintillation in a Tri-Carb 2500 TR counter (Packard, Zürich, Switzerland). For 96-Unifilter plates the radioactivity was measured after addition of Microscint 40 scintillation fluid (Perkin Elmer, Boston Mass.) using a TopCount NXT (Packard)
The inhibition curves were fitted with a four parameter logistic equation giving IC50 values, and Hill coefficients.

T1 sequence (P31421 19-872): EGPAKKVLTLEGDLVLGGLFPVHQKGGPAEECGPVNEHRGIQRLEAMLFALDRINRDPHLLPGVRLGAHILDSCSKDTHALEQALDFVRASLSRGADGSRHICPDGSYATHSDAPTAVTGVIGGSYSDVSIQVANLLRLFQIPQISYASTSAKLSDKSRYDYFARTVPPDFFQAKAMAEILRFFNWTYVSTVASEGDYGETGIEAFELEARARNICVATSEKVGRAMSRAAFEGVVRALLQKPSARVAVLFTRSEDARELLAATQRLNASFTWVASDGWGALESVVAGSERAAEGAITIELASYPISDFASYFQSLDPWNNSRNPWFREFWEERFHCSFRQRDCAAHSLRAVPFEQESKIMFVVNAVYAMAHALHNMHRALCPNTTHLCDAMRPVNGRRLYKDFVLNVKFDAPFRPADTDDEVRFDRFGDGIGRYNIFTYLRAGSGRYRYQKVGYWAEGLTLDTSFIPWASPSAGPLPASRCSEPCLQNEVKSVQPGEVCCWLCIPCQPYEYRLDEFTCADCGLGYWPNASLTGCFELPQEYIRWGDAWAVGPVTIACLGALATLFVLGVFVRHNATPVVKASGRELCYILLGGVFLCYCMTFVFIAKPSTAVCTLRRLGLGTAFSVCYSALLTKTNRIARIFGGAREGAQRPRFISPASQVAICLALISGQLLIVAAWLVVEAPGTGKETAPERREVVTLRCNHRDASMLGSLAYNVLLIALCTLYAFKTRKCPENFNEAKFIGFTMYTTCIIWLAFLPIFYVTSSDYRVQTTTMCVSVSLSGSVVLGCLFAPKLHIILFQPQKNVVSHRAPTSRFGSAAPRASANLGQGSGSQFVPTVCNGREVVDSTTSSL

Row | Compound | melting point [°C] | Ki (rat mGlu2 receptor) [nM]
1 | Nc1ccc(-c2cccc(-c3cc(C(F)(F)F)cc(-c4ccc(C(F)(F)F)cc4)n3)c2)cn1 [Example 60, 5-{3-[4-Trifluoromethyl-6-(4-trifluoromethyl-phenyl)-pyridin-2-yl]-phenyl}-pyridin-2-ylamine] | 170 to 172 | 32
2 | Cc1cc(-c2ccc(C(F)(F)F)cc2)cc(-c2cccc(-c3cccnc3)c2)n1 [Example 61, 2-Methyl-6-(3-pyridin-3-yl-phenyl)-4-(4-trifluoromethyl-phenyl)-pyridine] | 89 to 106 | 13
3 | Cc1cc(-c2ccc(C(F)(F)F)cc2)cc(-c2cccc(-c3ccc(N)nc3)c2)n1 [Example 62, 5-{3-[6-Methyl-4-(4-trifluoromethyl-phenyl)-pyridin-2-yl]-phenyl}-pyridin-2-ylamine] | 68 to 90 | 3
4 | FC(F)(F)c1ccc(-c2cc(-c3cccc(-c4cccnc4)c3)nc(C3CC3)c2)cc1 [Example 63, 2-Cyclopropyl-6-(3-pyridin-3-yl-phenyl)-4-(4-trifluoromethyl-phenyl)-pyridine] | 100 to 104 | 29
5 | Nc1ccc(-c2cn(-c3cc(C(F)(F)F)cc(-c4ccc(C(F)(F)F)cc4)n3)cn2)cn1 [Example 65, 5-{1-[4-Trifluoromethyl-6-(4-trifluoromethyl-phenyl)-pyridin-2-yl]-1H-imidazol-4-yl}-pyridin-2-ylamine] | 245 to 247 | 6
6 | Cc1cc(-c2ccc(C(F)(F)F)cc2)cc(-c2cccc(-c3cnc(N)nc3)c2)n1 [Example 70, 5-{3-[6-Methyl-4-(4-trifluoromethyl-phenyl)-pyridin-2-yl]-phenyl}-pyrimidin-2-ylamine] | 215 to 217 | 44
7 | Cc1cc(-c2ccc(C(F)(F)F)cc2)cc(-c2cccc(-c3ccc(N)nc3)n2)n1 [Example 71, 6-Methyl-4-(4-trifluoromethyl-phenyl)-[2,2′;6′,3″]terpyridin-6″-ylamine] | 208 to 211 | 1
8 | Cc1cc(-c2ccc(C(F)(F)F)cc2)cc(-c2cccc(-c3cnc(N)nc3)n2)n1 [Example 72, 5-[6′-Methyl-4′-(4-trifluoromethyl-phenyl)-[2,2′]bipyridinyl-6-yl]-pyrimidin-2-ylamine] | 219 to 222 | 56
9 | Cc1cc(-c2ccc(C(F)(F)F)cc2)cc(-c2cccc(-c3ccc(S(N)(=O)=O)cc3)n2)n1 [Example 73, 4-[6′-Methyl-4′-(4-trifluoromethyl-phenyl)-[2,2′]bipyridinyl-6-yl]-benzenesulfonamide] | 215 to 227 | 19
10 | Nc1ccc(-c2cc(-c3cc(C(F)(F)F)cc(-c4ccc(C(F)(F)F)cc4)n3)ccn2)cn1 [Example 74, 4-Trifluoromethyl-6-(4-trifluoromethyl-phenyl)-[2,4′;2′,3″]terpyridin-6″-ylamine] | 194 to 196 | 10
11 | CCOc1cc(-c2cc(C(F)(F)F)nc(-c3nc(-c4ccc(N)nc4)no3)n2)ccc1C(F)(F)F [Example 90, 5-{5-[4-(3-Ethoxy-4-trifluoromethyl-phenyl)-6-trifluoromethyl-pyrimidin-2-yl]-[1,2,4]oxadiazol-3-yl}-pyridin-2-ylamine] | 216 | 55
12 | OCc1ccc(-c2cccc(-c3nc(-c4ccc(C(F)(F)F)cc4)cc(C(F)(F)F)n3)c2)cc1 [Example 114, {3′-[4-Trifluoromethyl-6-(4-trifluoromethyl-phenyl)-pyrimidin-2-yl]-biphenyl-4-yl}-methanol] | 171 | 6
13 | Nc1ncc(-c2cccc(-c3nc(-c4ccc(C(F)(F)F)c(OCC(F)(F)F)c4)cc(C(F)(F)F)n3)c2)cn1 [Example 138, 5-(3-{4-[3-(2,2,2-Trifluoro-ethoxy)-4-trifluoromethyl-phenyl]-6-trifluoromethyl-pyrimidin-2-yl}-phenyl)-pyrimidin-2-ylamine] | 250 | 28
14 | FC(F)(F)c1ccc(-c2cc(C(F)(F)F)nc(-n3cnc(-c4ccncc4)n3)n2)cc1 [Example 148, 2-(3-Pyridin-4-yl-[1,2,4]triazol-1-yl)-4-trifluoromethyl-6-(4-trifluoromethyl-phenyl)-pyrimidine] | 248 | 49
15 | CC(C)(C)NS(=O)(=O)c1cccc(-c2cccc(-c3nc(-c4ccc(C(F)(F)F)cc4)cc(C(F)(F)F)n3)c2)c1 [Example 155, 3′-[4-Trifluoromethyl-6-(4-trifluoromethyl-phenyl)-pyrimidin-2-yl]-biphenyl-3-sulfonic acid tert-butylamide] | 200 | 8.4
16 | Nc1ncc(-c2cn(-c3nc(-c4cccc(Cl)c4)cc(C(F)(F)F)n3)cn2)cn1 [Example 187, 5-{1-[4-(3-Chloro-phenyl)-6-trifluoromethyl-pyrimidin-2-yl]-1H-imidazol-4-yl}-pyrimidin-2-ylamine] | 281 | 13.7
17 | Cc1cc(-c2ccc(Cl)cc2)nc(-n2cnc(-c3cccc(S(C)(=O)=O)c3)c2)n1 [Example 210, 4-(4-Chloro-phenyl)-2-[4-(3-methanesulfonyl-phenyl)-imidazol-1-yl]-6-methyl-pyrimidine] | 233 | 23
18 | CS(=O)(=O)c1cccc(-c2cc(-c3nc(-c4ccc(C(F)(F)F)cc4)cc(C(F)(F)F)n3)ccn2)c1 [Example 218, 2-[2-(3-Methanesulfonyl-phenyl)-pyridin-4-yl]-4-trifluoromethyl-6-(4-trifluoromethyl-phenyl)-pyrimidine] | 238.5 | 3
19 | NS(=O)(=O)Nc1cccc(-c2cccc(-c3nc(-c4ccc(C(F)(F)F)cc4)cc(C(F)(F)F)n3)c2)c1 [Example 221, N-{3′-[4-Trifluoromethyl-6-(4-trifluoromethyl-phenyl)-pyrimidin-2-yl]-biphenyl-3-yl}-sulfamide] | 174 | 7
20 | CN(C)S(=O)(=O)Nc1cccc(-c2cccc(-c3nc(-c4ccc(C(F)(F)F)cc4)cc(C(F)(F)F)n3)c2)c1 [Example 222, N-{3′-[4-Trifluoromethyl-6-(4-trifluoromethyl-phenyl)-pyrimidin-2-yl]-biphenyl-3-yl}-N′,N′-dimethyl-sulfamide] | 113 | 12.4
21 | CS(=O)(=O)Nc1cccc(-c2cccc(-c3nc(-c4ccc(C(F)(F)F)cc4)cc(C(F)(F)F)n3)c2)c1 [Example 223, N-{3′-[4-Trifluoromethyl-6-(4-trifluoromethyl-phenyl)-pyrimidin-2-yl]-biphenyl-3-yl}-methanesulfonamide] | 191 | 13
22 | Cc1cn(-c2cccc(-c3cc(-c4ccc(C(F)(F)F)cc4)cc(C)n3)c2)cn1 [Example 227, 2-Methyl-6-[3-(4-methyl-imidazol-1-yl)-phenyl]-4-(4-trifluoromethyl-phenyl)-pyridine] | 126 to 132 | 34
23 | Cc1cc(-c2ccc(C(F)(F)F)cc2)cc(-c2nc(-c3cccc(S(N)(=O)=O)c3)no2)n1 [Example 237, 3-{5-[6-Methyl-4-(4-trifluoromethyl-phenyl)-pyridin-2-yl]-[1,2,4]oxadiazol-3-yl}-benzenesulfonamide] | 277 | 4
24 | Cc1cc(-c2ccc(C(F)(F)F)cc2)cc(-c2cccc(C#N)c2)n1 [Example 242, 3-[6-Methyl-4-(4-trifluoromethyl-phenyl)-pyridin-2-yl]-benzonitrile] | 140 | 42
25 | NS(=O)(=O)c1cccc(-c2noc(-c3cc(C(F)(F)F)cc(-c4ccc(C(F)(F)F)cc4)n3)n2)c1 [Example 243, 3-{5-[4-Trifluoromethyl-6-(4-trifluoromethyl-phenyl)-pyridin-2-yl]-[1,2,4]oxadiazol-3-yl}-benzenesulfonamide] | 211 | 3
